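Test compounds were applied to cells in 96-well plates for 48 hours at 5 doses. At the TGI there is no net growth.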
Assays:
Assay in all cases: growth of human tumour cells (NCI), 48 h
786-0 renal = system: 786-0 renal
A498 renal = system: A498 renal
A549 NSCLC = system: A549 NSCLC
ACHN renal = system: ACHN renal
BT-549 breast = system: BT-549 breast
CAKI-1 renal = system: CAKI-1 renal
COLO 205 colon = system: COLO 205 colon
DU-145 prostate = system: DU-145 prostate
EKVX NSCLC = system: EKVX NSCLC
HCC-2998 colon = system: HCC-2998 colon
HCT-116 colon = system: HCT-116 colon
HCT-15 colon = system: HCT-15 colon
HOP-62 NSCLC = system: HOP-62 NSCLC
HOP-92 NSCLC = system: HOP-92 NSCLC
HS 578T breast = system: HS 578T breast
HT29 colon = system: HT29 colon
IGROV1 ovarian = system: IGROV1 ovarian
KM12 colon = system: KM12 colon
LOX IMVI melanoma = system: LOX IMVI melanoma
M14 melanoma = system: M14 melanoma
MALME-3M melanoma = system: MALME-3M melanoma
MCF7 breast = system: MCF7 breast
MDA-MB-231 breast = system: MDA-MB-231 breast
MDA-MB-435 = system: MDA-MB-435
MDA-N = system: MDA-N
MOLT-4 leukemia = system: MOLT-4 leukemia
NCI-H226 lung = system: NCI-H226 lung
NCI-H23 lung = system: NCI-H23 lung
NCI-H460 lung = system: NCI-H460 lung
NCI-H522 lung = system: NCI-H522 lung
NCI/ADR-RES ovarian = system: NCI/ADR-RES ovarian
OVCAR-3 ovarian = system: OVCAR-3 ovarian
OVCAR-4 ovarian = system: OVCAR-4 ovarian
OVCAR-5 ovarian = system: OVCAR-5 ovarian
OVCAR-8 ovarian = system: OVCAR-8 ovarian
PC-3 prostate = system: PC-3 prostate
RPMI-8226 leukemia = system: RPMI-8226 leukemia
RXF 393 renal = system: RXF 393 renal
SF-268 CNS = system: SF-268 CNS
SF-295 CNS = system: SF-295 CNS
SF-539 CNS = system: SF-539 CNS
SK-MEL-2 melanoma = system: SK-MEL-2 melanoma
SK-MEL-28 melanoma = system: SK-MEL-28 melanoma
SK-MEL-5 melanoma = system: SK-MEL-5 melanoma
SK-OV-3 ovarian = system: SK-OV-3 ovarian
SN12C renal = system: SN12C renal
SNB-19 CNS = system: SNB-19 CNS
SNB-75 CNS = system: SNB-75 CNS
SW-620 colon = system: SW-620 colon
T-47D breast = system: T-47D breast
TK-10 renal = system: TK-10 renal
U251 CNS = system: U251 CNS
UACC-257 melanoma = system: UACC-257 melanoma
UO-31 renal = system: UO-31 renal
CCRF-CEM leukemia = system: CCRF-CEM leukemia
K-562 leukemia = system: K-562 leukemia
UACC-62 melanoma = system: UACC-62 melanoma

COc1ccc2nc3cccc([N+](=O)[O-])c3c(NCCN(C)C)c2c1
TGI (786-0 renal): 0.348 µM
TGI (A498 renal): 0.347 µM
TGI (A549 NSCLC): 0.279 µM
TGI (ACHN renal): 0.357 µM
TGI (BT-549 breast): 0.184 µM
TGI (CAKI-1 renal): 0.746 µM
TGI (COLO 205 colon): 0.107 µM
TGI (DU-145 prostate): 0.0601 µM
TGI (EKVX NSCLC): 0.397 µM
TGI (HCC-2998 colon): 0.188 µM
TGI (HCT-116 colon): 0.115 µM
TGI (HCT-15 colon): 0.263 µM
TGI (HOP-62 NSCLC): 0.323 µM
TGI (HOP-92 NSCLC): 0.192 µM
TGI (HS 578T breast): 0.518 µM
TGI (HT29 colon): 0.441 µM
TGI (IGROV1 ovarian): 0.39 µM
TGI (KM12 colon): 0.449 µM
TGI (LOX IMVI melanoma): 0.232 µM
TGI (M14 melanoma): 0.218 µM
TGI (MALME-3M melanoma): 0.213 µM
TGI (MCF7 breast): 0.314 µM
TGI (MDA-MB-231 breast): 0.357 µM
TGI (MDA-MB-435): 0.208 µM
TGI (MDA-N): 0.262 µM
TGI (MOLT-4 leukemia): 0.491 µM
TGI (NCI-H226 lung): 0.456 µM
TGI (NCI-H23 lung): 0.362 µM
TGI (NCI-H460 lung): 0.0672 µM
TGI (NCI-H522 lung): 0.0487 µM
TGI (NCI/ADR-RES ovarian): 0.373 µM
TGI (OVCAR-3 ovarian): 0.312 µM
TGI (OVCAR-4 ovarian): 0.271 µM
TGI (OVCAR-5 ovarian): 0.437 µM
TGI (OVCAR-8 ovarian): 0.251 µM
TGI (PC-3 prostate): 0.268 µM
TGI (RPMI-8226 leukemia): 0.393 µM
TGI (RXF 393 renal): 0.23 µM
TGI (SF-268 CNS): 0.546 µM
TGI (SF-295 CNS): 1 µM
TGI (SF-539 CNS): 0.297 µM
TGI (SK-MEL-2 melanoma): 0.272 µM
TGI (SK-MEL-28 melanoma): 0.31 µM
TGI (SK-MEL-5 melanoma): 0.219 µM
TGI (SK-OV-3 ovarian): 0.781 µM
TGI (SN12C renal): 0.327 µM
TGI (SNB-19 CNS): 0.829 µM
TGI (SNB-75 CNS): 0.335 µM
TGI (SW-620 colon): 0.756 µM
TGI (T-47D breast): 0.408 µM
TGI (TK-10 renal): 0.659 µM
TGI (U251 CNS): 0.6 µM
TGI (UACC-257 melanoma): 0.384 µM
TGI (UO-31 renal): 0.413 µM

Clc1ccc(Nc2nn3c(CCCCCCCCc4nnc5sc(Nc6ccc(Cl)cc6)nn45)nnc3s2)cc1
TGI (786-0 renal): > 100 µM
TGI (A498 renal): > 100 µM
TGI (A549 NSCLC): > 100 µM
TGI (ACHN renal): > 100 µM
TGI (BT-549 breast): > 100 µM
TGI (CAKI-1 renal): > 100 µM
TGI (CCRF-CEM leukemia): > 100 µM
TGI (COLO 205 colon): > 100 µM
TGI (DU-145 prostate): > 100 µM
TGI (EKVX NSCLC): > 100 µM
TGI (HCC-2998 colon): > 100 µM
TGI (HCT-116 colon): > 100 µM
TGI (HCT-15 colon): > 100 µM
TGI (HOP-62 NSCLC): > 100 µM
TGI (HOP-92 NSCLC): > 100 µM
TGI (HS 578T breast): > 100 µM
TGI (HT29 colon): > 100 µM
TGI (K-562 leukemia): > 100 µM
TGI (KM12 colon): > 100 µM
TGI (LOX IMVI melanoma): > 100 µM
TGI (M14 melanoma): > 100 µM
TGI (MALME-3M melanoma): > 100 µM
TGI (MCF7 breast): > 100 µM
TGI (MDA-MB-231 breast): > 100 µM
TGI (MDA-MB-435): > 100 µM
TGI (MDA-N): > 100 µM
TGI (MOLT-4 leukemia): > 100 µM
TGI (NCI-H226 lung): > 100 µM
TGI (NCI-H23 lung): > 100 µM
TGI (NCI-H460 lung): > 100 µM
TGI (NCI-H522 lung): > 100 µM
TGI (NCI/ADR-RES ovarian): > 100 µM
TGI (OVCAR-3 ovarian): > 100 µM
TGI (OVCAR-4 ovarian): > 100 µM
TGI (OVCAR-5 ovarian): > 100 µM
TGI (OVCAR-8 ovarian): > 100 µM
TGI (PC-3 prostate): > 100 µM
TGI (RPMI-8226 leukemia): > 100 µM
TGI (RXF 393 renal): > 100 µM
TGI (SF-268 CNS): > 100 µM
TGI (SF-295 CNS): > 100 µM
TGI (SF-539 CNS): > 100 µM
TGI (SK-MEL-2 melanoma): > 100 µM
TGI (SK-MEL-28 melanoma): > 100 µM
TGI (SK-MEL-5 melanoma): > 100 µM
TGI (SK-OV-3 ovarian): > 100 µM
TGI (SN12C renal): > 100 µM
TGI (SNB-19 CNS): 80.4 µM
TGI (SNB-75 CNS): 62.6 µM
TGI (SW-620 colon): > 100 µM
TGI (T-47D breast): > 100 µM
TGI (TK-10 renal): 96.8 µM
TGI (U251 CNS): > 100 µM
TGI (UACC-257 melanoma): > 100 µM
TGI (UACC-62 melanoma): > 100 µM
TGI (UO-31 renal): > 100 µM
